Source: publication PMC8474115 (Journal of Medicinal Chemistry, 2021)
Counter-ions that a name gives are not always drawn. Like-named read-outs stand apart in the source and are kept apart here.

Tests used:
[1] = target: T1, Histamine H2 (Homo sapiens, UniProt P25021); experiment: Eurofins SafetyScreen panel; format: binding
T1 construct: purchased Eurofins (Panlabs) SafetyScreen87 Panel

[2] = target: hERG potassium channel (Homo sapiens, UniProt Q12809); experiment: in vitro; conditions: %inh
[3] = target: CYP2D6 (Homo sapiens, UniProt P10635); experiment: Cytochrome P450 inhibition (Eurofins); conditions: at 10 μM; listed as 17, 10 µM
[4] = target: T2, Muscarinic M1 (Homo sapiens, UniProt P11229); experiment: Eurofins SafetyScreen panel; format: binding
T2 construct: Eurofins (contract screening, SafetyScreen panel) PP223
T2 sequence (P11229 1-460): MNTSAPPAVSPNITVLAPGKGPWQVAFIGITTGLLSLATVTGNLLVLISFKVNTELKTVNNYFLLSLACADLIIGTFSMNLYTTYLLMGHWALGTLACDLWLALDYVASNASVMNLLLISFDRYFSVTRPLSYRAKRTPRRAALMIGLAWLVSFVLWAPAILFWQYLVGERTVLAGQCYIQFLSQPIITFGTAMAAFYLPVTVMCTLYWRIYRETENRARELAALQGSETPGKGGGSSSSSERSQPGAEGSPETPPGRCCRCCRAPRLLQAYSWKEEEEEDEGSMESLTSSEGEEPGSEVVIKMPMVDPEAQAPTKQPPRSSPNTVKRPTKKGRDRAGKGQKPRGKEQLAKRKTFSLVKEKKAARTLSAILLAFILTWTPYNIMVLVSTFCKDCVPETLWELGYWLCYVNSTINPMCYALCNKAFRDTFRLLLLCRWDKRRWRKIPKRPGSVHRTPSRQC

[5] = target: T3, Angiotensin AT1 (Homo sapiens, UniProt P30556); experiment: Eurofins SafetyScreen panel; format: binding
T3 construct: Eurofins (contract screening, SafetyScreen panel) PP223

[6] = target: T4, Melanocortin MC4 (Homo sapiens, UniProt P32245); experiment: Eurofins SafetyScreen panel; format: binding
T4 construct: purchased Eurofins (Panlabs) SafetyScreen87 Panel

[7] = target: T5, 5-HT2B receptors (Homo sapiens, UniProt P41595); experiment: Agonist effect at 5-HT2B receptors (HTRF, Eurofins); format: cell-based; conditions: 1 μM
T5 construct: Eurofins, France
Protocol: Experiment was performed in duplicate at Eurofins, France.

[8] = target: T6, MAO-B (Homo sapiens, UniProt P27338); experiment: Eurofins SafetyScreen panel; format: biochemical
T6 construct: Eurofins

[9] = target: T7, Histamine H3 (Homo sapiens, UniProt Q9Y5N1); experiment: Eurofins SafetyScreen panel; format: binding
T7 construct: purchased Eurofins (Panlabs) SafetyScreen87 Panel

[10] = target: T8, Dopamine Transporter (DAT) (Homo sapiens, UniProt Q01959); experiment: Eurofins SafetyScreen panel; format: binding
T8 construct: Eurofins (contract assay)

[11] = target: Potassium Channel [hERG] (Homo sapiens, UniProt Q12809); experiment: Eurofins SafetyScreen panel
[12] = target: T9, Serotonin 5-HT1A (Homo sapiens, UniProt P08908); experiment: Eurofins SafetyScreen panel; format: binding
T9 construct: Eurofins (contract assay)
T9 sequence (P08908 1-422): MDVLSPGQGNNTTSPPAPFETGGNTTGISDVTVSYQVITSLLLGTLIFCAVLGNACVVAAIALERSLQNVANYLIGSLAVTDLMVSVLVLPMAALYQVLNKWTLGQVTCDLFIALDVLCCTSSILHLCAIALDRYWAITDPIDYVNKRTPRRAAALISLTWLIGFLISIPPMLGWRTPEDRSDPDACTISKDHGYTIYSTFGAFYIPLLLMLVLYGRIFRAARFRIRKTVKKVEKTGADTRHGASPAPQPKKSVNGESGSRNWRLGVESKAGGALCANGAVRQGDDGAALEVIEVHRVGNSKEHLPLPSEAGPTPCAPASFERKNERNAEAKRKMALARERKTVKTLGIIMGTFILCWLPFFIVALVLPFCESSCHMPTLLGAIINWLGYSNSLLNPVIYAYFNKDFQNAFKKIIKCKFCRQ

[13] = target: T10, Platelet Activating Factor (PAF) (Homo sapiens, UniProt P25105); experiment: Eurofins SafetyScreen panel; format: binding
T10 construct: Eurofins (contract assay)

[14] = target: T11, Melanocortin MC1 (Homo sapiens, UniProt Q01726); experiment: Eurofins SafetyScreen panel; format: binding
T11 construct: purchased Eurofins (Panlabs) SafetyScreen87 Panel

[15] = target: T12, Cathepsin G (Homo sapiens, UniProt P08311); experiment: Eurofins SafetyScreen panel; format: biochemical
T12 construct: Eurofins

[16] = target: T13, Serotonin 5-HT7 (Homo sapiens, UniProt P34969); experiment: Eurofins SafetyScreen panel; format: binding
T13 construct: Eurofins (contract assay) 272320

[17] = target: T14, Adenosine A1 (Homo sapiens, UniProt P30542); experiment: Eurofins SafetyScreen panel; format: binding
T14 construct: Eurofins (contract screening, SafetyScreen panel) PP223

[18] = target: T15, Adrenergic α1A (Rattus norvegicus, UniProt P43140); experiment: Eurofins SafetyScreen panel; format: binding
T15 construct: Eurofins (contract screening, SafetyScreen panel) PP223

[19] = target: Glutamate NMDA, Glycine (Rattus norvegicus, UniProt P35439); experiment: Eurofins SafetyScreen panel; format: binding
[20] = target: T16, Bradykinin B2 (Homo sapiens, UniProt P30411); experiment: Eurofins SafetyScreen panel; format: binding
T16 construct: Eurofins (contract screening, SafetyScreen panel) PP223

[21] = target: T17, Opiate μ (OP3, MOP) (Homo sapiens, UniProt P35372); experiment: Eurofins SafetyScreen panel; format: binding
T17 construct: Eurofins (contract assay)

[22] = target: T18, Protein Tyr Kinase, Insulin receptor (Homo sapiens, UniProt P06213); experiment: Eurofins SafetyScreen panel; format: biochemical
T18 construct: Eurofins (contract screening, SafetyScreen panel) PP223

[23] = target: T19, Adrenergic α1D (Homo sapiens, UniProt P25100); experiment: Eurofins SafetyScreen panel; format: binding
T19 construct: Eurofins (contract screening, SafetyScreen panel) PP223

[24] = read-out: %inh, 10 μM, additional batch

T13 sequence (P34969 whole entry): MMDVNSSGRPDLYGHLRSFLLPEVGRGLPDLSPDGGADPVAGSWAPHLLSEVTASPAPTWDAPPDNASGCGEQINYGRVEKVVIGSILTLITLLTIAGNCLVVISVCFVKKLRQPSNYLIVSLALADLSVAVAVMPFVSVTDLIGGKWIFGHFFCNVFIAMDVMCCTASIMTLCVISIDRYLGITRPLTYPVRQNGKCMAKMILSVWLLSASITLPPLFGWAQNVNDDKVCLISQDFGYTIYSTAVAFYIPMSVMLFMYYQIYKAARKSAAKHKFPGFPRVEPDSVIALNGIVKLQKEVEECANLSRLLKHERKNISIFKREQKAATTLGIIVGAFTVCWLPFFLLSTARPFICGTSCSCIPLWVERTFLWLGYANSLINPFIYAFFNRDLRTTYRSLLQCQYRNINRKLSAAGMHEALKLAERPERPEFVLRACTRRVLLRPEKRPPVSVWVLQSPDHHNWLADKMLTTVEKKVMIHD
hERG potassium channel, sequence (Q12809 whole entry): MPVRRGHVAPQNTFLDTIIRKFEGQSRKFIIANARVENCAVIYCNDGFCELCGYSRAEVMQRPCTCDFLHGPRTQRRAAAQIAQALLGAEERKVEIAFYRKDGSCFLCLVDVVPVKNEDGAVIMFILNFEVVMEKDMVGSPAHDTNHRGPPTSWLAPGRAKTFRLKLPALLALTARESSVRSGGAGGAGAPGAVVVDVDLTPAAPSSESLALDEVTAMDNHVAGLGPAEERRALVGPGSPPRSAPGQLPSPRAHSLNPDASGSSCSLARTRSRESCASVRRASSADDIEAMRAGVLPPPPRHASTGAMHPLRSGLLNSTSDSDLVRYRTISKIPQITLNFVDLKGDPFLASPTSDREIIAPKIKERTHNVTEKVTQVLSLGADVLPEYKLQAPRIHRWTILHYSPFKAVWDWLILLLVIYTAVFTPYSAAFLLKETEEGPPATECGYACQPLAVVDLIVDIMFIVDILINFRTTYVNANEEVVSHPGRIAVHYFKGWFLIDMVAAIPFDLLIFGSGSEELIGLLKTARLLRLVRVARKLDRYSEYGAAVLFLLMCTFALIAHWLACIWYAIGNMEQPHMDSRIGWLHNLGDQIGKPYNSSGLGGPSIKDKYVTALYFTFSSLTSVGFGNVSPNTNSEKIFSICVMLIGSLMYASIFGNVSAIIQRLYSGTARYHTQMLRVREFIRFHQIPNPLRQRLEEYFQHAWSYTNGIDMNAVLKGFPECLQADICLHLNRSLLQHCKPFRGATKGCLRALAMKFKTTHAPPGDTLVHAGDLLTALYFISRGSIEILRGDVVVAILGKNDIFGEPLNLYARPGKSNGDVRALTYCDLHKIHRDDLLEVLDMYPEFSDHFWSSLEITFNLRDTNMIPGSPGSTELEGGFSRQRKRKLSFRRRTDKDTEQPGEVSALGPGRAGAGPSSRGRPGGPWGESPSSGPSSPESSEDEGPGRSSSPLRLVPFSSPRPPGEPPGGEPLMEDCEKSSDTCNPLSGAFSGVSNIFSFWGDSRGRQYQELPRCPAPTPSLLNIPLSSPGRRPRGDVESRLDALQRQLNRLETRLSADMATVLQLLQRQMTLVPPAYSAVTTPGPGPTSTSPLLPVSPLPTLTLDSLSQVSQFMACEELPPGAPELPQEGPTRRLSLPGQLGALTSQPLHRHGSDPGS
T17 sequence (P35372 whole entry): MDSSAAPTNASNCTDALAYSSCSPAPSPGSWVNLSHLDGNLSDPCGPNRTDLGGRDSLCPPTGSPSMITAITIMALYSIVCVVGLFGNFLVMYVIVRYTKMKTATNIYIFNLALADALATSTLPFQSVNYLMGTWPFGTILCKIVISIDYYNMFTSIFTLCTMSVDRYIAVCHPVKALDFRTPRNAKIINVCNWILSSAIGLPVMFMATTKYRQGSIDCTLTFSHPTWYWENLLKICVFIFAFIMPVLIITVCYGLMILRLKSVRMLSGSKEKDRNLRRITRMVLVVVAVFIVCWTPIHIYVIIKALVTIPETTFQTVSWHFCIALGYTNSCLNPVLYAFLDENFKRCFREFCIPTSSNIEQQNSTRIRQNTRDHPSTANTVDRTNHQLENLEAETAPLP
T8 sequence (Q01959 whole entry): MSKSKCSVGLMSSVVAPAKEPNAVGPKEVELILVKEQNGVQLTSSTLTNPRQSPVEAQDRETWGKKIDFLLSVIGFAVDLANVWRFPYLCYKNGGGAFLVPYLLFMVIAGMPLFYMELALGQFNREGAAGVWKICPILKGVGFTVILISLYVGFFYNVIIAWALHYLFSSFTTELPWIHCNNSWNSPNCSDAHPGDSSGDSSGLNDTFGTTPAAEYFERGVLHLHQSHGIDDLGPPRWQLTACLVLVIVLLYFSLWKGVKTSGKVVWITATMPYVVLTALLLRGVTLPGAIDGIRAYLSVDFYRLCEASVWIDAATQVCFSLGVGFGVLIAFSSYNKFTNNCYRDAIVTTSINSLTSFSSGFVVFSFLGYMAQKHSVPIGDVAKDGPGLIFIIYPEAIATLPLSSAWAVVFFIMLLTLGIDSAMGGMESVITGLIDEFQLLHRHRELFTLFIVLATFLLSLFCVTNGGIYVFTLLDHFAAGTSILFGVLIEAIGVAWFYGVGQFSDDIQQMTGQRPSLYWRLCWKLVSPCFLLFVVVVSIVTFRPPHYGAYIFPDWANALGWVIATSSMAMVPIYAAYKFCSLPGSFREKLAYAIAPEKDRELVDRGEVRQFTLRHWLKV
T14 sequence (P30542 whole entry): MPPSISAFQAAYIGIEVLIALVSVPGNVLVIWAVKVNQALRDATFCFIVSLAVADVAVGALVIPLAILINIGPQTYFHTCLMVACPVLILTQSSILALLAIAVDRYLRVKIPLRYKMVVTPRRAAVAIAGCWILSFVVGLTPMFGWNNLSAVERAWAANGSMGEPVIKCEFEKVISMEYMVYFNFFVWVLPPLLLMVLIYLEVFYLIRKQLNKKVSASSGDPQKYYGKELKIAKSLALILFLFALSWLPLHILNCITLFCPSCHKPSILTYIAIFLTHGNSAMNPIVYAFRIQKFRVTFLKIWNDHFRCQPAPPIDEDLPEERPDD
T15 sequence (P43140 whole entry): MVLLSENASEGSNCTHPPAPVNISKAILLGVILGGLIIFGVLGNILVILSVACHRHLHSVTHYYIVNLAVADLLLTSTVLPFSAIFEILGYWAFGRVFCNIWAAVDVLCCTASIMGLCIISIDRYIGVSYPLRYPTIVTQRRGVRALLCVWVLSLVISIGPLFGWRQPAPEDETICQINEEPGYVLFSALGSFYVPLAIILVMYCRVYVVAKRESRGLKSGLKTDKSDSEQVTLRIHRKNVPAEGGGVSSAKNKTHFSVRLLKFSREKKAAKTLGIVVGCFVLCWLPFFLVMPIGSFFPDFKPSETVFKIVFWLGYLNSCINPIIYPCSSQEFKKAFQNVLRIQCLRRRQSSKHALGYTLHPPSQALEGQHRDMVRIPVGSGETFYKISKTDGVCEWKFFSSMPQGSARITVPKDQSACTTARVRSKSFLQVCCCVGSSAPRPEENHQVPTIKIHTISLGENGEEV
T5 sequence (P41595 whole entry): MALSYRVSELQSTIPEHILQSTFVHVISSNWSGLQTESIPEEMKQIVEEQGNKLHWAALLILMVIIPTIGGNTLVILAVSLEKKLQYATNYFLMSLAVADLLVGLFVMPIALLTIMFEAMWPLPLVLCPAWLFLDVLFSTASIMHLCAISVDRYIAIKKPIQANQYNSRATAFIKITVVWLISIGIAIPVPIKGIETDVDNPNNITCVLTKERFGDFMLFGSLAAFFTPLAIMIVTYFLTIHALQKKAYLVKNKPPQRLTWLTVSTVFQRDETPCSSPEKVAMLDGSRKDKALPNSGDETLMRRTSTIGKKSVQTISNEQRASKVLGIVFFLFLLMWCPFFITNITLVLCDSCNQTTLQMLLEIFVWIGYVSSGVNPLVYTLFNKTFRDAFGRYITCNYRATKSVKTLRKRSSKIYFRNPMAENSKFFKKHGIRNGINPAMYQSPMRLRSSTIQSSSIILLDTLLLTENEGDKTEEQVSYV
T19 sequence (P25100 whole entry): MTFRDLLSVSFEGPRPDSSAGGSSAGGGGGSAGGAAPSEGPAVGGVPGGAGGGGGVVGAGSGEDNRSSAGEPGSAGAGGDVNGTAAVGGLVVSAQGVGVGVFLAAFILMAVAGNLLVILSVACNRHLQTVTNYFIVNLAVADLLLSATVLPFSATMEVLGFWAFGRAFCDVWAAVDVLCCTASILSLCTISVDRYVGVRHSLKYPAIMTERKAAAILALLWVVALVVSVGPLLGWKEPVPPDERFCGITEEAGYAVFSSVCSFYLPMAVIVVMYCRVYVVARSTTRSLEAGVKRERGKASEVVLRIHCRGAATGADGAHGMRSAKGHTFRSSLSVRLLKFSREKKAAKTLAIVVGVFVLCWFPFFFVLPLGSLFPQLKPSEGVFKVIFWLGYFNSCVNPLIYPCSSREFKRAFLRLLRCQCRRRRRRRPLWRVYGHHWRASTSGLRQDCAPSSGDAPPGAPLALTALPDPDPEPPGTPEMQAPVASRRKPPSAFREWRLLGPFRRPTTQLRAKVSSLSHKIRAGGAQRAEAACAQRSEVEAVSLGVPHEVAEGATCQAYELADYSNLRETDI
T10 sequence (P25105 whole entry): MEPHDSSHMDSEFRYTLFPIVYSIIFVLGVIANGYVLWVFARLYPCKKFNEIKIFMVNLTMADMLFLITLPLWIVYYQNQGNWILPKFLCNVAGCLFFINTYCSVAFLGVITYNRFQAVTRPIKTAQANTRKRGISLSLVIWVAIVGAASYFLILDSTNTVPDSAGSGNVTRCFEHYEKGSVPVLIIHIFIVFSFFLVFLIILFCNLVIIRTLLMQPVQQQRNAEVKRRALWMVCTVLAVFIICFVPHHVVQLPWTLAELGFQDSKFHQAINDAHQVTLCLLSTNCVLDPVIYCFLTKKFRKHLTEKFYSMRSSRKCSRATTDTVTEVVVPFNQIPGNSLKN

O=S(=O)(c1cccc(F)c1)n1ccc2c(N3CCNCC3)nc3ccccc3c21 [FPPQ, 1-[(3-Fluorophenyl)sulfonyl]-4-(piperazin-1-yl)-1H-pyrrolo[3,2-c]quinoline dihydrochloride]
inhibition at 10 µM [1]: 45%
inhibition at 0.01 µM ([2]; 10 nM): 9%
inhibition at 0.1 µM ([2]; 0.1 μM): 9%
inhibition at 1 µM ([2]; 1 μM): 32%
inhibition at 10 µM [2]: 107%
inhibition at 10 µM ([2]; additional batch): 101%
cytochrome P450 inhibition 2D6 [3]: < 25% inh at 10 uM
IC50 [4]: 7890 nM
Ki [4]: 1940 nM
inhibition at 0.1 µM ([4]; read-out: %inh): 3%
inhibition at 1 µM ([4]; read-out: %inh): 13%
inhibition at 100 µM ([4]; read-out: %inh): 98%
inhibition at 10 µM [5]: -4%
inhibition at 10 µM [6]: 27%
agonistic effect at 5-HT2BR [7]: 3.6 % inhibition
inhibition at 10 µM [8]: 21%
inhibition at 10 µM [9]: 26%
IC50 [10]: 1370 nM
inhibition at 0.01 µM ([10]; read-out: %inh, 10 nM): 2%
inhibition at 0.1 µM ([10]; read-out: %inh, 0.1 μM): 6%
inhibition at 1 µM ([10]; read-out: %inh, 1 μM): 31%
inhibition at 10 µM ([10]; read-out: %inh, 10 μM): 101%
inhibition at 10 µM [10, 24]: 98%
Ki [11]: 940 nM
IC50 [12]: 860 nM
Ki [12]: 490 nM
inhibition at 0.01 µM ([12]; read-out: %inh, 10 nM): -2%
inhibition at 0.1 µM ([12]; read-out: %inh, 0.1 μM): 16%
inhibition at 1 µM ([12]; read-out: %inh, 1 μM): 53%
inhibition at 10 µM ([12]; read-out: %inh, 10 μM): 87%
inhibition at 10 µM [12, 24]: 91%
inhibition at 10 µM [13]: 14%
inhibition at 10 µM [14]: 10%
inhibition at 10 µM [15]: -1%
inhibition at 0.1 µM ([16]; read-out: %inh, 0.1 μM): -1%
inhibition at 1 µM ([16]; read-out: %inh, 1 μM): 21%
inhibition at 10 µM ([16]; read-out: %inh, 10 μM): 65%
inhibition at 10 µM [16, 24]: 67%
inhibition at 100 µM ([16]; read-out: %inh, 100 μM): 93%
inhibition at 10 µM [17]: 29%
inhibition at 10 µM [18]: 34%
inhibition at 10 µM [19]: -1%
inhibition at 10 µM [20]: 0%
IC50 [21]: 7080 nM
inhibition at 0.1 µM ([21]; read-out: %inh, 0.1 μM): 3%
inhibition at 10 µM ([21]; read-out: %inh, 10 μM): 59%
inhibition at 10 µM [21, 24]: 61%
inhibition at 100 µM ([21]; read-out: %inh, 100 μM): 97%
inhibition at 10 µM [22]: -6%
inhibition at 10 µM [23]: 24%
